Source: US12071626B2, “Splice-switching oligonucleotides and methods of use” (priority 2015, dated 2024)
“Also recorded” adds a separate entry of the source. In the oligonucleotide strings, read from the 5' end, every base follows the letter of its sugar. An asterisk marks phosphorothioate; unmarked linkages are phosphodiester. Other units and linkages are bracketed, terminal groups are in braces. A string of capitals states the bases alone. m = 2'-O-methyl

Columns and labels:
Assay type in all cases: cell-based, human
EGFR pre-mRNA [1] = assay: RT-PCR (endpoint, gel) of EGFR exon 16 / exon 18 skipping in LNCaP cells; details: increasing concentrations of SSO vs transfection reagent alone, RNA 72 hrs after transfection
Experimental: (§1) LNCaP cells were treated with transfection reagent alone or with increasing concentrations of exon 16 (left) or exon 18 (right) SSO. RNA was harvested 72 hrs after transfection. Targets were visualized by RT-PCR using primers located in the exons flanking the target exon, as depicted above the gel images. Products were confirmed by sequencing.
as §1, with “(SSO #1, left in FIG. 8)” for “(left)”, “(SSO #2, right in FIG. 8).” for “(right) SSO.”, “hours” for “hrs”, “images in FIG. 8.” for “images.”, “sequencing. The primers used were: […]” for “sequencing.”

EGFR pre-mRNA [2] = assay: qPCR quantitation of EGFR exon 16 / exon 18 skipped products; details: increasing concentrations of SSO
Source text: qPCR primers correspond to those used in FIG. 10 and endpoint PCR primers correspond to those used in FIG. 8.

pEGFR = pEGFR Western blot in LNCaP cells after EGF exposure; details: 250 nM SSO, 72 hrs post transfection, 10 ng/ml EGF for 10 minutes, normalized to GAPDH and vehicle control
Experimental: (§2) LNCaP cells were treated with transfection reagent alone or with 250 nM EGRF exon 16 or 18 SSOs. 72 hrs post transfection, cells were exposed to 10 ng/ml EGF for 10 minutes before lysing and haresting total protein. pEGFR and GAPDH were visualized via Western blot and imaged and quantified on a Licor Odyssey Fc. pEGFR quantities are normalized to GAPDH and then to vehicle control.
as §2, with “EGFR” for “EGRF”, “hours” for “hrs”, “ng/mL” for “ng/ml”, “harvesting” for “haresting”, “via” for “via Western blot and imaged and quantified on a Licor”

AR-V7 protein = AR-V7 protein in LN95 prostate cancer cells transfected with SSO; details: increasing concentrations of SSO
[3] = test system: LN95 prostate cancer cells; assay: Proliferation of LN95 prostate cancer cells
AR-V7 RNA = AR-V7 RNA by QRT-PCR in prostate cancer cells transfected with SSO; details: RNA 72 hours after transfection, normalized to TBP
Experimental: (§3) LN95, VCaP, 22Rv1 and MDA PCa 2b cells were treated with control scrambled SSO or with increasing concentrations of AR-V7 SSO, as indicated. RNA was harvested 72 hours after transfection for cDNA production and QRT-PCR analysis. Ct values were normalized to TBP, TATA-binding protein, in each sample and used to generate relative expression values.
as §3, with “MDA” for “LN95, VCaP, 22Rv1 and MDA”, “transfection reagent alone” for “control scrambled SSO”, “AR45” for “AR-V7”

[4] = test system: MDA PCa 2b prostate cancer cells; assay: Colony forming ability of MDA PCa 2b prostate cancer cells; details: MDA PCa 2b cells
AR45 = AR45 RNA by QRT-PCR in MDA PCa 2b cells transfected with SSO; details: increasing concentrations of SSO vs transfection reagent alone, RNA 72 hours after transfection, normalized to TBP
Experimental: as §3, with “MDA” for “LN95, VCaP, 22Rv1 and MDA”, “transfection reagent alone” for “control scrambled SSO”, “AR45” for “AR-V7”

wild type AR = assay: Wild type (full-length) AR RNA by QRT-PCR in MDA PCa 2b cells transfected with SSO; details: increasing concentrations of SSO vs transfection reagent alone, RNA 72 hours after transfection, normalized to TBP
Experimental: as §3, with “MDA” for “LN95, VCaP, 22Rv1 and MDA”, “transfection reagent alone” for “control scrambled SSO”, “AR45” for “AR-V7”

AR signaling = assay: AR signaling: QRT-PCR of known AR induced and AR repressed targets in MDA PCa 2b cells; details: 400 nM SSO vs transfection reagent alone, RNA 72 hours after transfection
Experimental: MDA Pca 2b cells were treated with transfection reagent alone or with 400 nM AR45 SSO. RNA was harvested 72 hours after transfection for cDNA production and QRT-PCR analysis (Light green=known AR induced targets, dark green=known AR repressed targets).

Substance: mC*mC*mA*mG*mG*mG*mA*mC*mC*mU*mU*mA*mC*mC*mU*mU*mA*mU [EGFR exon 18 SSO]
- production of dominant-negative EGFR variants (exon skipping, RT-PCR gel) (EGFR pre-mRNA [1]): drive production of dominant-negative EGFR variants in a dose-dependent manner
- production of dominant-negative EGFR variants (quantitated, qPCR of skipped product) (EGFR pre-mRNA [2]): drive production of dominant-negative EGFR variants in a dose-dependent manner
- pEGFR protein expression (pEGFR): block pEGFR protein expression
- pEGFR protein expression (pEGFR; listed as EGRF exon 18 SSO): inhibition of pEGFR expression

Substance: mG*mC*mC*mA*mA*mC*mC*mC*mG*mG*mA*mA*mU*mU*mU*mU*mU*mC [AR-V7 SSO]
- AR-V7 protein (AR-V7 protein): inhibiting AR-V7 RNA (left) and protein (right) in a dose-dependent manner
- proliferation [3]: inhibiting proliferation
- proliferation in the presence of enzalutamide ([3]; in the presence of enzalutmide): inhibiting proliferation
- AR-V7 RNA relative expression (AR-V7 RNA; 22Rv1 cells, vs control scrambled SSO): inhibiting AR-V7 RNA; also recorded: Dose-dependent inhibition of AR-V7
- AR-V7 RNA relative expression (AR-V7 RNA; LN95 cells, increasing concentrations of SSO vs control scrambled SSO): inhibiting AR-V7 RNA (left) and protein (right) in a dose-dependent manner; also recorded: Dose-dependent inhibition of AR-V7
- AR-V7 RNA relative expression (AR-V7 RNA; MDA PCa 2b cells, vs control scrambled SSO): inhibiting AR-V7 RNA; also recorded: Dose-dependent inhibition of AR-V7
- AR-V7 RNA relative expression (AR-V7 RNA; VCaP cells, vs control scrambled SSO): inhibiting AR-V7 RNA; also recorded: Dose-dependent inhibition of AR-V7
- colony forming ability [4]: inhibiting colony forming ability

Substance: mG*mC*mU*mG*mU*mG*mA*mA*mC*mA*mC*mU*mU*mA*mC*mC*mC*mA [EGFR exon 16 SSO]
- production of dominant-negative EGFR variants (exon skipping, RT-PCR gel) (EGFR pre-mRNA [1]): drive production of dominant-negative EGFR variants in a dose-dependent manner
- production of dominant-negative EGFR variants (quantitated, qPCR of skipped product) (EGFR pre-mRNA [2]): drive production of dominant-negative EGFR variants in a dose-dependent manner
- pEGFR protein expression (pEGFR): block pEGFR protein expression
- pEGFR protein expression (pEGFR; listed as EGRF exon 16 SSO): inhibition of pEGFR expression

Substance: mG*mG*mA*mA*mA*mA*mA*mC*mU*mU*mA*mC*mC*mG*mC*mA*mU*mG [AR45 SSO]
- expression of AR-V7 RNA (AR-V7 RNA; MDA PCa 2b cells, increasing concentrations of SSO vs transfection reagent alone): decreasing wild type AR and AR-V7; also recorded: decreasing expression of full-length AR and the constitutively active AR variant, AR-V7
- production of AR45 (RNA relative expression) (AR45): drives production of the dominant-negative AR variant, AR45
- expression of wild type (full-length) AR RNA (wild type AR): decreasing wild type AR and AR-V7; also recorded: decreasing expression of full-length AR
- AR signaling (RNAs of AR induced and AR repressed targets) (AR signaling): modulating AR signaling; also recorded: Modulation of AR signaling
